Source: patent publication US10865216B2, “Tricyclic Gyrase inhibitors” (MERCK SHARP & DOHME CORP., priority 2012, dated 2020)
In brackets after ≈: the same amount, converted by molar mass. Read-outs that look alike come from different tables or passages of the source.

Columns and labels:
S. aureus ATCC 13709 = assay: MIC, S. aureus ATCC 13709; format: cell-based; settings: for MIC: Staphylococcus aureus
E. coli ATCC 25922 = assay: MIC, E. coli ATCC 25922; format: cell-based; settings: for MIC: Escherichia coli
[1] = ATCC13709, S. aureus, Alamar Blue read after overnight incubation at 35° C., read-out: MIC Sa
[2] = ATCC25922, E. coli, Alamar Blue read after overnight incubation at 35° C., read-out: MIC Ec
[3] = S. aureus, Alamar Blue read after overnight incubation at 35° C.
[4] = E. coli, Alamar Blue read after overnight incubation at 35° C.

Row | MIC (S. aureus ATCC 13709; [1]) [µg/mL] | MIC (E. coli ATCC 25922; [2]) [µg/mL] | MIC Sa (S. aureus ATCC 13709; [3]) [µg/mL] | MIC Ec (E. coli ATCC 25922; [4]) [µg/mL] | Structure (SMILES) | further results
1 |  |  |  |  | CNc1cc(F)c(C#N)c2c1[nH]c1nc(Oc3cnc(C)nc3)nc(N3C[C@H]4C[C@@H]3C[C@H]4N)c12 [Compound 10.69] | MIC Sa (S. aureus ATCC 13709; Table 18, Sa): ≤ 0.5 µg/mL; MIC Ec (E. coli ATCC 25922; Table 18, Ec): ≤ 0.5 µg/mL
2 | 2 (≈ 4.38 µM) | > 64 |  |  | COc1nccc2c1[nH]c1nc(Sc3cnc4cccnc4c3)nc(N3CC4C(N)C4C3)c12 (centres unmarked) [Compound 7.03] | 
3 |  |  |  |  | CNc1cc(F)cc2c1[nH]c1nc(Oc3cnc(C(C)O)nc3)nc(N3CC4CC(C3)C4N)c12 (centres unmarked) [Compound 10.82] | MIC Sa (S. aureus ATCC 13709; Table 18, Sa): 0.13 µg/mL (≈ 0.28 µM); MIC Ec (E. coli ATCC 25922; Table 18, Ec): 0.5 µg/mL (≈ 1.08 µM)
4 |  |  | ≤0.5 | ≤0.5 | CNc1cc(F)cc2c1[nH]c1nc(Oc3cnc(SC)nc3)nc(N3CC4CCC(N)C4C3)c12 (centres unmarked) [Compound 4.200] | 
5 |  |  | ≤0.5 | ≤0.5 | CNc1cc(F)cc2c1[nH]c1nc(Oc3cnc(C4CC4)nc3)nc(N3CC4(CCC4N)C3)c12 (centres unmarked) [Compound 4.244] | 
6 | 1 (≈ 2.41 µM) | 8 (≈ 19.3 µM) |  |  | CNc1cccc2c1[nH]c1nc(Oc3cncnc3)cc(N3CC4CCC(N)C4C3)c12 (centres unmarked) [Compound 3.15] | 
7 |  |  | ≤0.5 | 2 (≈ 4.76 µM) | CNc1cc(F)cc2c1[nH]c1nc(Oc3cncnc3)nc(N3CC4C(CN)C4C3)c12 (centres unmarked) [Compound 4.004] | 
8 |  |  |  |  | CNc1cc(F)c(Br)c2c1[nH]c1nc(Oc3cnc(C)nc3)nc(N3C[C@H]4C[C@@H]3C[C@H]4N)c12 [Compound 10.68] | MIC Sa (S. aureus ATCC 13709; Table 18, Sa): ≤ 0.5 µg/mL; MIC Ec (E. coli ATCC 25922; Table 18, Ec): ≤ 0.5 µg/mL
9 | 1 (≈ 2.58 µM) | 4 (≈ 10.3 µM) |  |  | CNc1cccc2c1[nH]c1nc(Oc3cncnc3)cc(N3CC4CC4(N)C3)c12 (centres unmarked) [Compound 3.1] | 
10 |  |  |  |  | CNc1cc(F)c2c3c1[nH]c1nc(Oc4cnc(C)nc4)nc(c13)N1CCC[C@H]1CNC2 | SA MIC (S. aureus ATCC 13709; Table 12, Z is C and connected to R4): 16 µg/mL; EC8 MIC (E. coli ATCC 25922; Table 12, Z is C and connected to R4, EC8 not defined): > 16 µg/mL
11 |  |  |  |  | CNc1cc(F)cc2c1[nH]c1nc(Oc3cnc(C)nc3)nc(N3CCOCC3)c12 [Compound 10.54] | MIC Sa (S. aureus ATCC 13709; Table 18, Sa): ≤ 0.5 µg/mL; MIC Ec (E. coli ATCC 25922; Table 18, Ec): ≤ 0.5 µg/mL
12 | 16 (≈ 37.2 µM) | 64 (≈ 149 µM) |  |  | CNc1cccc2c1[nH]c1nc(Oc3ccc(C(=O)O)nc3)cc(N3CC4C(N)C4C3)c12 (centres unmarked) [Compound 3.22] | 
13 | ≤ 0.5 | 8 (≈ 17.1 µM) |  |  | CNc1ccc(C)c2c1[nH]c1nc(Sc3cnc4cccnc4c3)nc(N3CC4C(N)C4C3)c12 (centres unmarked) [Compound 1.58] | 
14 |  |  |  |  | CNc1cc(F)c(F)c2c1[nH]c1nc(Oc3cnc(C)nc3)nc(N3CC4NCC[C@@H]4C3)c12 (some centres unmarked) [Compound 10.32] | MIC Sa (S. aureus ATCC 13709; Table 18, Sa): ≤ 0.5 µg/mL; MIC Ec (E. coli ATCC 25922; Table 18, Ec): ≤ 0.5 µg/mL
15 |  |  | >16 | >16 | CNc1cc(F)cc2c1[nH]c1nc(Oc3cnc(C)nc3)nc(N3CCC4(CC3)NC(=O)NC4=O)c12 [Compound 4.107] | 
16 | 2 (≈ 4.52 µM) | 4 (≈ 9.04 µM) |  |  | CNc1cccc2c1[nH]c1nc(Sc3cnc4cccnc4c3)nc(N3CCNCC3)c12 [Compound 1.46] | 
17 |  |  |  |  | CNc1cc(F)cc2c1[nH]c1nc(Oc3cnc(C)nc3)nc(-c3ccc(C4(N)CC4)cc3)c12 | MIC (S. aureus ATCC 13709; ATCC13709, Table 16, new R4 substituents, read-out: SA MIC): ≤ 0.5 µg/mL; MIC (E. coli ATCC 25922; ATCC25922, Table 16, new R4 substituents, EC8 not defined, read-out: EC8 MIC): 4 µg/mL (≈ 8.78 µM)
18 |  |  | ≤0.5 | ≤0.5 | CNc1cc(F)cc2c1[nH]c1nc(Oc3cnc(N(C)C)nc3)nc(N3CC(N)C4(CC4)C3)c12 (centres unmarked) [Compound 4.209] | 
19 |  |  |  |  | C=Cc1cc(F)c(F)c2c1[nH]c1nc(Oc3cnc(C)nc3)nc(N3C[C@H]4C[C@@H]3C[C@H]4N)c12 [Compound 10.110] | MIC Sa (S. aureus ATCC 13709; Table 18, Sa): ≤ 0.5 µg/mL; MIC Ec (E. coli ATCC 25922; Table 18, Ec): ≤ 0.5 µg/mL
20 | 1 (≈ 2.09 µM) | 2 (≈ 4.19 µM) |  |  | CNc1cc(F)cc2c1[nH]c1nc(Oc3cnc(C(C)(C)N)nc3)nc(N3C[C@H]4CC3C[C@H]4N)c12 [Compound 4.442] | 
21 |  |  |  |  | CNc1cc(F)c(F)c2c1[nH]c1nc(Oc3cnc(C(C)O)nc3)nc(N3CCC4(CCCC4N)C3)c12 (centres unmarked) [Compound 10.112] | MIC Sa (S. aureus ATCC 13709; Table 18, Sa): ≤ 0.5 µg/mL; MIC Ec (E. coli ATCC 25922; Table 18, Ec): ≤ 0.5 µg/mL
22 |  |  | >64 | >64 | NC1CN(c2nc(Sc3cnc4nccnc4c3)nc3[nH]c4ccccc4c23)C1 [Compound 1.05] | 
23 | 2 (≈ 4.47 µM) | 8 (≈ 17.9 µM) |  |  | CNc1cc(F)cc2c1[nH]c1nc(Oc3cnc(C)nc3)nc(-c3cc(CN)ccc3F)c12 [Compound 4.446] | 
24 |  |  |  |  | C=Cc1cc(F)cc2c1[nH]c1nc(Oc3cnc(C)nc3)nc(N3C[C@H]4C[C@@H]3C[C@H]4N)c12 [Compound 10.84] | MIC Sa (S. aureus ATCC 13709; Table 18, Sa): ≤ 0.5 µg/mL; MIC Ec (E. coli ATCC 25922; Table 18, Ec): ≤ 0.5 µg/mL
25 |  |  | ≤0.5 | ≤0.5 | CNc1cc(F)cc2c1[nH]c1nc(Oc3cncc(F)c3)nc(N3CC4(CCC4N)C3)c12 (centres unmarked) [Compound 4.061] | 
26 |  |  | ≤0.5 | 4 (≈ 8.22 µM) | CNc1cc(F)cc2c1[nH]c1nc(Oc3cnc4ccc[n+]([O-])c4c3)nc(N3CC4(CCC4N)C3)c12 (centres unmarked) [Compound 4.342] | 
27 |  |  | ≤0.5 | ≤0.5 | CNc1cc(F)cc2c1[nH]c1nc(Oc3cncc(F)c3)nc(N3CC(N)C4(CC4)C3)c12 (centres unmarked) [Compound 4.057] | 
28 | > 32 | > 32 |  |  | CNc1cccc2c1[nH]c1nc(Sc3cnc4ccc[n+]([O-])c4c3)nc(N3CC4CC3CN4)c12 (centres unmarked) [Compound 1.57] | 
